In test [1] the test system is KB. In words: Cytotoxicity against human KB cells. In kind it is functional, cell-based.
Test [2] deals with A10. In words: Induction of microtubule loss in rat A10 cells at 1 ng/mL. Type of test: functional.

Experimental findings from ChEMBL document CHEMBL1150939, “Symplostatin 1: A dolastatin 10 analogue from the marine cyanobacterium Symploca hydnoides” (J Nat Prod, 1998) are described below.

≈ marks a conversion by molar mass, not a printed value.

What is called IC50 is the point on the concentration scale where inhibition reaches its midpoint. Turning to `CC[C@H](C)[C@@H]([C@@H](CC(=O)N1CCC[C@H]1[C@H](OC)[C@@H](C)C(=O)N[C@@H](Cc1ccccc1)c1nccs1)OC)N(C)C(=O)[C@@H](NC(=O)[C@H](C(C)C)N(C)C)C(C)C` [DOLASTATIN-10], the IC50 in test [1] is below 0.1 ng/mL. `CC[C@H](C)[C@@H]([C@@H](CC(=O)N1CCC[C@H]1[C@H](OC)[C@@H](C)C(=O)N[C@@H](Cc1ccccc1)c1nccs1)OC)N(C)C(=O)[C@@H](NC(=O)[C@H]([C@@H](C)CC)N(C)C)C(C)C` [SYMPLOSTATIN 1] displayed an IC50 in test [1] of 0.3 ng/mL (≈ 0.375 nM). Also, the Activity in test [2] came out at 80%.
